Experimental data as given in patent US20060135773A1, “Trisubstituted nitrogen modulators of tyrosine phosphatases” (priority 2004, published 2006).
Like-named read-outs stand apart in the source and are kept apart here.

Legend:
PTP-1B = target: T1, PTP-1B (Homo sapiens, UniProt P18031); test: pNPP tyrosine phosphatase inhibition assay, PTP-1B; type: biochemical
T1 construct: PTP-1B (purified, 1 mg/mL) as a 1:250 dilution
T1 sequence (P18031 1-321 limits assumed): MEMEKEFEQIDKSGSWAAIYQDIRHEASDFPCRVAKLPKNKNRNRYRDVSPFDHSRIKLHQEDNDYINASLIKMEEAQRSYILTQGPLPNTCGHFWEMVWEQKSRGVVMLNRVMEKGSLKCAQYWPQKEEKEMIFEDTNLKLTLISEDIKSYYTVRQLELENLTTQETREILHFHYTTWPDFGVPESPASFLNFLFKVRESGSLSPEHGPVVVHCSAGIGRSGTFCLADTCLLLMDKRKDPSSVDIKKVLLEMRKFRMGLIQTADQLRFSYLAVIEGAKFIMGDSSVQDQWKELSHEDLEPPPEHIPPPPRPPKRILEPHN
Outline: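 Test compounds were screened at two final levels, 31.3 and 10 µM, against 4 µg/mL purified PTP-1B. The substrate was 10 mM p-nitrophenyl phosphate, with incubation for 10 min at 30°C before a K2CO3 quench. Activity was taken from A405.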

[1] = test system: pIR (phosphorylated insulin receptor) in FAO cells; test: IR phosphorylation assay in FAO cells (pIR ELISA / Western); type: cell-based, rat; conditions: 10 nM insulin and 10 μM compound
Source text: Antibodies and Chemicals. The antibody against phosphorylated insulin receptor (pIR) and the ELISA kit for detection of pIR were from Biosource (Camarillo, Calif.). Rabbit anti-IR/IGF-IR [pYpY1162/1163] phosphospecific antibody recognizes both the insulin receptor (IR) and the insulin-like growth factor-1 receptor (IGF-1R) phosphorylated at the active site tyrosine residues, 1162 and 1163 (1135 and 1136 for IGF-1R) (pIR/pIGF-1R). The Insulin Receptor [pYpY1162/1163] […] HRP-conjugated secondary antibodies were from Cell Signaling Technology (Beverly, Mass.). The ECL detection system was from Amersham (Buckinghamshire, UK), and human insulin was from Invitrogen (Carlsbad, Calif.).
Tissue Culture. FAO rat hepatoma cells were obtained from ECACC (#89042701) and maintained at 37° C. in a 5% CO2 environment in Dulbecco's modified Eagle's medium with high glucose (DMEM-high glucose) (4500 mg/liter) supplemented with 10% FBS and 50 units/ml penicillin, 100 μg/ml streptomycin and 0.292 mg/ml L-glutamine. For assays, cells were seeded in 24-well plates at a density of 2×10^5 cells/well and maintained until they reached confluency (about 3 days).
IR phosphorylation assays. Cells in 24-well plates were serum starved overnight in DMEM-low glucose (1000 mg/liter) without serum. […] The pIR/pIGF-1R signals were scanned (HP scanjet 3570c) and quantified (Scion Image). […]

[2] = pNPP assay, PTP-1B, read-out: Activity Class (IC50 ranges)

Row | melting point | IC50 (PTP-1B; [2]) | IC50 (PTP-1B; in vitro activity of the prodrug, range as in Table 1, read-out: in vitro activity) | Structure (SMILES) | insulin-induced accumulation of pIR, % of 300 nM insulin pIR signal [1]
1 | 87 to 89 °C | 2.5 to 25 µM |  | O=C(c1ccccc1)N(Cc1ccc(C(F)(F)P(=O)(O)O)cc1)Cc1ccc(C(F)(F)P(=O)(O)O)cc1 [Compound 11, {[4-({Benzoyl-[4-(difluoro-phosphono-methyl)-benzyl]-amino}-methyl)-phenyl]-difluoro-methyl}-phosphonic acid] | 
2 | 124 to 127 °C | > 25 µM |  | O=C(NCc1ccccc1)N(Cc1ccc(C(F)(F)P(=O)(O)O)cc1)Cc1ccc(C(F)(F)P(=O)(O)O)cc1 [Compound 13, [(4-{3-Benzyl-1-[4-(difluoro-phosphono-methyl)-benzyl]-ureidomethyl}-phenyl)-difluoro-methyl]-phosphonic acid] | 
3 | 268 to 270 °C | > 25 µM |  | CN(Cc1ccc(C(F)(F)P(=O)(O)O)cc1)Cc1ccc(C(F)(F)P(=O)(O)O)cc1 [Compound 15, {[4-({[4-(Difluoro-phosphono-methyl)-benzyl]-methyl-amino}-methyl)-phenyl]-difluoro-methyl}-phosphonic acid] | 
4 | 106 to 108 °C | 2.5 to 25 µM |  | O=C(OCc1ccccc1)N(Cc1ccc(C(F)(F)P(=O)(O)O)cc1)Cc1ccc(C(F)(F)P(=O)(O)O)cc1 [Compound 17, {[4-({Benzyloxycarbonyl-[4-(difluoro-phosphono-methyl)-benzyl]-amino}-methyl)-phenyl]-difluoro-methyl}-phosphonic acid] | 
5 | 125 to 128 °C | 2.5 to 25 µM |  | O=P(O)(O)C(F)(F)c1ccc(CN(Cc2ccc(-c3ccccc3)cc2)Cc2ccc(C(F)(F)P(=O)(O)O)cc2)cc1 [Compound 20, {[4-({Biphenyl-4-ylmethyl-[4-(difluoro-phosphono-methyl)-benzyl]-amino}-methyl)-phenyl]-difluoro-methyl}-phosphonic acid] | 
6 | 160 to 162 °C | 0.1 to 0.249 µM |  | O=C(O)c1ccc(CN(Cc2ccc(C(F)(F)P(=O)(O)O)c(Br)c2)S(=O)(=O)c2ccccc2)cc1 [Compound 31, 4-({Benzenesulfonyl-[3-bromo-4-(difluoro-phosphono-methyl)-benzyl]-amino}-methyl)-benzoic acid] | 
7 | 187 to 189 °C (dec.) | > 25 µM |  | COc1ccccc1S(=O)(=O)N(Cc1ccc(NC(=O)C(=O)O)cc1)Cc1ccc(NC(=O)C(=O)O)cc1 [Compound 57, N-[4-({(2-Methoxy-benzenesulfonyl)-[4-(oxalyl-amino)-benzyl]-amino}-methyl)-phenyl]-oxalamic acid] | 
8 |  | 2.5 to 25 µM | 2.5 to 25 µM | COc1ccccc1S(=O)(=O)N(Cc1ccc(-c2cccc(C#N)c2)cc1)Cc1ccc(C(F)(F)P(=O)(O)OC(C)OC(=O)OC(C)C)c(Cl)c1 (centres unmarked) [Compound 218, [(2-Chloro-4-{[(3′-cyano-biphenyl-4-ylmethyl)-(2-methoxy-benzenesulfonyl)-amino]-methyl}-phenyl)-difluoro-methyl]-phosphonic acid mono-(1-isopropoxycarbonyloxy-ethyl) ester] | about 80 % of 300 nM insulin pIR signal
